Laboratory results: patent publication US9296751B1, “Indolizino[3,2-c]quinoline derivatives, pharmaceutically acceptable salt thereof, preparation method thereof and pharmaceutical composition for treatment of cystic fibrosis containing the same as active ingredient” (INDUSTRY-ACADEMIC COOPERATION FOUNDATION, YONSEI UNIVERSITY, priority 2014, dated 2016)

Key:
[1] = biological target: T1, human cystic fibrosis conductance transmembrane regulator (CFTR) (Homo sapiens, UniProt P13569); assay: Effect upon CFTR chloride ion channel activity (YFP fluorescence quenching by iodide influx in FRT cells); assay type: cell-based; conditions: for Emax at 30 µM: FRT, 10 min, final concentration of 30 μM, reaction for 10 minutes, ratio based on the CFTR activity maximized by forskolin; for CFTR activity ratio, result in words: 30 μM, comment on Table 2
T1 construct: expressed in transfected cells; host or cells: FRT cells (Fischer rat thyroid epithelial cells)
Method: FRT cells expressing […] specific to human cystic fibrosis conductance transmembrane regulator (CFTR) and iodide ions are cultured in the Coon's modified F-12 culture medium for 48 hours on a 96-well plate. Each well of the plate containing the cultured cells is washed three times with 200 μl of PBS buffer, and then 100 μl of PBS buffer is added to each well. The indolizino[3,2-c]quinoline derivative according to each Example is introduced to each well to a final concentration of 30 μM, followed by reaction for 10 minutes. After the completion of the reaction, the 96-well is mounted to a FLUOstar Omega microplate reader (BMG LABTECH) and 100 μl of NaI solution is added to each well. Then, YFP fluorescence reduced by the iodide ions introduced to the cells through CFTR is recorded at an interval of 0.4 seconds for 24 seconds in total, thereby evaluating the effect of each compound upon CFTR activity.
The effect of each indolizino[3,2-c]quinoline derivative upon CFTR chloride ion channel activity is calculated as an activity ratio based on the CFTR activity maximized by a well-known CFTR agonist, forskolin.

T1 sequence (P13569 whole entry): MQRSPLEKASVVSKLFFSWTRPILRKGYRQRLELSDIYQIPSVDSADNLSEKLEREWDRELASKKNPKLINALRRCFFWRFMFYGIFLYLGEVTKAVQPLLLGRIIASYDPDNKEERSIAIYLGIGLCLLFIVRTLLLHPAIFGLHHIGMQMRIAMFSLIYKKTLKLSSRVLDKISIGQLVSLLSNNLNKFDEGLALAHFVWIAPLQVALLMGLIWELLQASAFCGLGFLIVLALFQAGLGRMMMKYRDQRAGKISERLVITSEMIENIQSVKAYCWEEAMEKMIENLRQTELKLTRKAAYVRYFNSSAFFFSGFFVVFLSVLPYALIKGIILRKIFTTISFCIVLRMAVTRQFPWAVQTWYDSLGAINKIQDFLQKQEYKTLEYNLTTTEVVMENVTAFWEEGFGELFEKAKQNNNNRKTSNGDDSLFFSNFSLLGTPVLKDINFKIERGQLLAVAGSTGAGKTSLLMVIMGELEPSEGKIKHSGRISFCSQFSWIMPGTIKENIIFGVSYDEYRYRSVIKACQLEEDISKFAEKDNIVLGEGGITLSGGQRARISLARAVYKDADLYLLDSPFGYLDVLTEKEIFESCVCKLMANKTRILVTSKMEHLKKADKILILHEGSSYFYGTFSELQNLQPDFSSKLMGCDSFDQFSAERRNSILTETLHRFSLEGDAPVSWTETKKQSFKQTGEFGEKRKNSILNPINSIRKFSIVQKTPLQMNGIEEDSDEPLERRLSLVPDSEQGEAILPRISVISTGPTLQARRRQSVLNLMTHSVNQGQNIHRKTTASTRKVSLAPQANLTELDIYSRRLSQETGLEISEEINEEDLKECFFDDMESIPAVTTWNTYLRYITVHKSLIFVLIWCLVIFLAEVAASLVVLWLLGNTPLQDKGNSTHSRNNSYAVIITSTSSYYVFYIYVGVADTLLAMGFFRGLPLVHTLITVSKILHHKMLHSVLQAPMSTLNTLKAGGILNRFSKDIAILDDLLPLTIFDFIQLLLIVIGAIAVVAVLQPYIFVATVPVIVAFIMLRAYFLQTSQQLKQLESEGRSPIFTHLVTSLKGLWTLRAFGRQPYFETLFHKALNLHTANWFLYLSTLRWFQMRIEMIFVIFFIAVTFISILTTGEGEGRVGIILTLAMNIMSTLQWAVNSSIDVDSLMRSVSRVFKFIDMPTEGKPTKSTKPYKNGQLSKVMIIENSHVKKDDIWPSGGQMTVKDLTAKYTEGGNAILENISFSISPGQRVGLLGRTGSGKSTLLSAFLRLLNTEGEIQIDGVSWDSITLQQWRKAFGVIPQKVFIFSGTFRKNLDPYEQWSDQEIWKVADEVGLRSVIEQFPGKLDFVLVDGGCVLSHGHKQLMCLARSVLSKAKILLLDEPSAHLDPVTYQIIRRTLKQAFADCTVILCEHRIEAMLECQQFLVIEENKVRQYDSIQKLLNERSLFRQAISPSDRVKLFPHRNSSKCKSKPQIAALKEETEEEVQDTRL

COc1cccc(-c2nc3ccccc3c3cc4ccccn4c23)c1 [Example 8, 6-(3-Methoxyphenyl)indolizino[3,2-c]quinoline]
melting point: 174 to 174.4 °C

COc1cc(OC)cc(-c2nc3ccccc3c3cc4c(C)cccn4c23)c1 [Example 21, 6-(3,5-Dimethoxyphenyl)-11-methylindolizino[3,2-c]quinoline]
melting point: 185.8 to 186.4 °C
Emax at 30 µM [1]: 66%

COc1ccc(-c2nc3ccccc3c3cc4ccc(-c5ccc([N+](=O)[O-])cc5)cn4c23)cc1 [Example 41, 6-(4-Methoxyphenyl)-9-(4-nitrophenyl)indolizino[3,2-c]quinoline]
melting point: 256 to 256.6 °C

Clc1ccc(-c2nc3ccccc3c3cc4ccccn4c23)cc1 [Example 3, 6-(4-Chlorophenyl)indolizino[3,2-c]quinoline]
melting point: 190.5 to 191 °C

COc1ccc(-c2nc3ccccc3c3cc4ccccn4c23)cc1OC [Example 11, 6-(3,4-Dimethoxyphenyl)indolizino[3,2-c]quinoline]
melting point: 91.3 to 92 °C

CCOC(=O)c1c2c3ccccc3nc(-c3cccc(OC)c3)c2n2ccccc12 [Example 37, Ethyl 6-(3-methoxyphenyl)indolizino[3,2-c]quinoline-12-carboxylate]
melting point: 173.4 to 173.8 °C

CCOC(=O)c1c2c3ccccc3nc(-c3cccc(Cl)c3)c2n2ccccc12 [Example 35]
melting point: 214.3 to 214.5 °C

Cc1cccn2c1cc1c3ccccc3nc(-c3ccc([N+](=O)[O-])cc3)c12 [Example 18, 11-Methyl-6-(4-nitrophenyl)indolizino[3,2-c]quinoline]
melting point: 259.7 to 260.4 °C

Brc1ccc(-c2nc3ccccc3c3cc4ccccn4c23)cc1 [Example 1, 6-(4-Bromophenyl)indolizino[3,2-c]quinoline]
melting point: 205.5 to 205.8 °C
CFTR activity ratio, result in words [1]: high activity ratio
Emax at 30 µM [1]: 85%

Cc1ccc(-c2nc3ccccc3c3cc4ccccn4c23)cc1 [Example 9, 6-(p-Tolyl)indolizino[3,2-c]quinoline]
melting point: 85.3 to 86 °C

Clc1cccc(-c2nc3ccccc3c3cc4ccccn4c23)c1 [Example 4, 6-(3-Chlorophenyl)indolizino[3,2-c]quinoline]
melting point: 124.3 to 125.3 °C

Brc1ccc2cc3c4ccccc4nc(-c4ccco4)c3n2c1 [Example 29, 9-Bromo-6-(furna-2-yl)indolizino[3,2-c]quinoline]
melting point: 193.3 to 193.6 °C

COc1ccc(-c2nc3ccccc3c3cc4ccc(Br)cn4c23)cc1OC [Example 26, 9-Bromo-6-(3,4-dimethoxyphenyl)indolizino[3,2-c]quinoline]
melting point: 188.5 to 189 °C

Clc1ccc(-c2nc3ccccc3c3cc4ccccn4c23)s1 [Example 15, 6-(5-Chlorothiophen-2-yl)indolizino[3,2-c]quinoline]
melting point: 161.4 to 161.7 °C
CFTR activity ratio, result in words [1]: high activity ratio
Emax at 30 µM [1]: 98%

O=[N+]([O-])c1ccc(-c2nc3ccccc3c3cc4ccccn4c23)cc1 [Example 5, 6-(4-Nitrophenyl)indolizino[3,2-c]quinoline]
melting point: 246.3 to 246.5 °C
CFTR activity ratio, result in words [1]: high activity ratio
Emax at 30 µM [1]: 93%

c1ccc(-c2nc3ccccc3c3cc4ccccn4c23)cc1 [Example 6, 6-Phenylindolizino[3,2-c]quinoline]
melting point: 141.9 to 142.8 °C

COc1ccc(-c2nc3ccccc3c3cc4ccc(Br)cn4c23)cc1 [Example 24, 9-Bromo-6-(4-methoxyphenyl)indolizino[3,2-c]quinoline]
melting point: 229.5 to 230 °C

Fc1ccc(-c2nc3ccccc3c3cc4ccccn4c23)cc1 [Example 2, 6-(4-Fluorophenyl)indolizino[3,2-c]quinoline]
melting point: 167 to 167.4 °C

CCOC(=O)c1c2c3ccccc3nc(-c3ccc4ccccc4c3)c2n2ccccc12 [Example 39, Ethyl 6-(naphthalene-2-yl)indolizino[3,2-c]quinoline-12-carboxylate]
melting point: 210.3 to 210.7 °C

c1ccc2cc(-c3nc4ccccc4c4cc5ccccn5c34)ccc2c1 [Example 13, 6-(Naphthalen-2-yl)indolizino[3,2-c]quinoline]
melting point: 205.6 to 206.2 °C
CFTR activity ratio, result in words [1]: high activity ratio
Emax at 30 µM [1]: 83%

Cc1ccc(-c2nc3ccccc3c3cc4ccc(Br)cn4c23)cc1 [Example 25, 9-Bromo-6-(p-tolyl)indolizino[3,2-c]quinolone]
melting point: 230.8 to 231.2 °C

COc1ccc(-c2nc3ccccc3c3cc4c(C)cccn4c23)cc1OC [Example 22, 6-(3,4-Dimethoxyphenyl)-11-methylindolizino[3,2-c]quinoline]
melting point: 162.8 to 163.3 °C

c1ccc2c(-c3nc4ccccc4c4cc5ccc(-c6ccoc6)cn5c34)cccc2c1 [Example 43, 9-(Furan-3-yl)-6-(naphthalene-1 yl)indolizino[3,2-c]quinoline]
melting point: 91.3 to 92 °C

Brc1ccc2cc3c4ccccc4nc(-c4ccc(Br)s4)c3n2c1 [Example 28, 9-Bromo-6-(5-bromothiophen-2-yl)indolizino[3,2-c]quinoline]
melting point: 223.3 to 223.7 °C

Cc1ccc(-c2nc3ccccc3c3cc4c(C)cccn4c23)cc1 [Example 20, 11-Methyl-6-(p-tolyl)indolizino[3,2-c]quinoline]
melting point: 162.5 to 163.1 °C

COc1cccc(-c2nc3ccccc3c3cc4c(C)cccn4c23)c1 [Example 19, 6-(3-Methoxyphenyl)-11-methylindolizino[3,2-c]quinoline]
melting point: 165 to 166 °C

COc1ccc(-c2nc3ccccc3c3cc4ccccn4c23)cc1 [Example 7, 6-(4-Methoxyphenyl)indolizino[3,2-c]quinoline]
melting point: 164.3 to 164.7 °C

COc1cc(OC)cc(-c2nc3ccccc3c3cc4ccccn4c23)c1 [Example 10, 6-(3,5-Dimethoxyphenyl)indolizino[3,2-c]quinoline]
melting point: 139.7 to 140.4 °C
CFTR activity ratio, result in words [1]: high activity ratio
Emax at 30 µM [1]: 63%

CCOC(=O)c1c2c3ccccc3nc(-c3ccc([N+](=O)[O-])cc3)c2n2ccccc12 [Example 36, Ethyl 6-(4-nitrophenyl)indolizino[3,2-c]quinoline-12-carboxylate]
melting point: 245.8 to 246.1 °C

COC(=O)c1c2c3ccccc3nc(-c3ccc(Br)cc3)c2n2ccccc12 [Example 30, Methyl 6-(4-bromophenyl)indolizino[3,2-c]quinoline-12-carboxylate]
melting point: 232.3 to 232.5 °C

CCOC(=O)c1c2c3ccccc3nc(-c3ccc(OC)c(OC)c3)c2n2ccccc12 [Example 38, Ethyl 6-(3,4-dimethoxyphenyl)indolizino[3,2-c]quinoline-12-carboxylate]
melting point: 195.5 to 195.8 °C
Emax at 30 µM [1]: 31%

Cc1cccn2c1cc1c3ccccc3nc(-c3cccc(F)c3)c12 [Example 17, 6-(3-Fluorophenyl)-11-methylindolizino[3,2-c]quinoline]
melting point: 176.1 to 176.5 °C
Emax at 30 µM [1]: 50%

COC(=O)c1c2c3ccccc3nc(-c3cc(OC)cc(OC)c3)c2n2ccccc12 [Example 31, Methyl 6-(3,5-dimethoxyphenyl)indolizino[3,2-c]quinoline-12-carboxylate]
melting point: 205.9 to 206.3 °C
CFTR activity ratio, result in words [1]: high activity ratio

COC(=O)c1c2c3ccccc3nc(-c3cccc4ccccc34)c2n2ccccc12 [Example 32, Methyl 6-(naphthalene-1-yl)indolizino[3,2-c]quinoline-12-carboxylate]
melting point: 245.8 to 246.2 °C

COC(=O)c1c2c3ccccc3nc(-c3ccc[nH]3)c2n2ccccc12 [Example 33, Methyl 6-(1H-pyrrol-2-yl)indolizino[3,2-c]quinoline-12-carboxylate]
melting point: 230.8 to 231.4 °C
Emax at 30 µM [1]: 37%

COc1ccc(-c2nc3ccccc3c3c(Br)c4ccccn4c23)cc1 [Example 44, 12-Bromo-6-(4-methoxyphenyl)indolizino[3,2-c]quinoline]
melting point: 221.6 to 221.9 °C

COc1cc(OC)cc(-c2ccc3cc4c5ccccc5nc(-c5cccc6ccccc56)c4n3c2)c1 [Example 42, 9-(3,5-Dimethoxyphenyl)-6-(naphthalene-1-yl)indolizino[3,2-c]quinoline]
melting point: 177.5 to 177.8 °C

CCOC(=O)c1c2c3ccccc3nc(-c3cccc(F)c3)c2n2ccccc12 [Example 34, Ethyl 6-(3-fluorophenyl)indolizino[3,2-c]quinoline-12-carboxylate]
melting point: 202.1 to 202.4 °C
